Measured values: patent US11999749B2, “Synthesis of a bis-mesylate salt of 4-amino-N-(1-((3-chloro-2-fluorophenyl)amino)-6-methylisoquinolin-5-yl)thieno[3,2-d]pyrimidine-7-carboxamide and intermediates thereto” (Genentech, Inc., priority 2021, dated 2024)

Legend:
[1] = solubility screen of 1b in organic solvents; format: physicochemical
Text: This is notwithstanding the previously established solubility of 1b in NMP; that solvent should not be used due to its toxicity and the allowed limit of ˜500 ppm in the final pharmaceutical product. The limit for NMP is considerably lower than the 5,000 ppm permitted for DMSO. One of the reasons for relying on the recrystallization step is to remove an excess of NMP from the final product.
The selection of an appropriate anti-solvent is based at least in part on good miscibility with the other solvent(s) being used, low solubility of the solid form (to give desired form), and the ability to effectively remove impurities. To ensure the best control and purge of inorganic impurities in the crude product, water was selected as the anti-solvent. To this end, a more detailed solubility study of the crude material in DMSO/water mixtures at 10, 70, 75 and 80° C. indicated a steep dependence of the solubility of 1b on water content, with temperature having a smaller impact on recovery yield.

[2] = hygroscopicity of the salt forms; format: physicochemical; conditions: relative to the bis-HCl salt

solubility ([1]; in DMSO): sufficient solubility
solubility ([1]; in most organic solvents, initial solubility screen): exceptionally low solubility
hygroscopicity [2]: lower hygroscopicity
SMILES: Cc1ccc2c(Nc3cccc(Cl)c3F)nccc2c1NC(=O)c1csc2c(N)ncnc12 [Compound 1b, 4-amino-N-(1-((3-chloro-2-fluorophenyl)amino)-6-methylisoquinolin-5-yl)thieno[3,2-d]pyrimidine-7-carboxamide bis-mesylate]
